Results published in US20250154141A1 (University of Florida Research Foundation, Incorporated, priority 2021, published 2025).

Key:
[1] = test system: RS4; 11; test: Cell viability assay (MTS) in RS4; 11 cells; format: cell-based; set-up: Anti-Cancer Activity IC50 (48 hr) RS4; 11: scale not given here; conditions: Table 2, 48 hr, MTS; for IC50: Homo sapiens, RS4-11, read-out: Anti-Cancer Activity IC50 (48 hr) RS4, 11
Experimental: (§1) Acute lymphoblastic leukemia cells (MOLT-4 and RS4; 11) were incubated with increasing concentrations of Bcl-xL degraders for 48 h. Cell viability was measured by tetrazolium-based MTS assay.

[2] = test system: MOLT-4; test: Cell viability assay (MTS) in MOLT-4 cells; format: cell-based; conditions: Homo sapiens, MOLT-4; Table 2; 48 hr; MTS; read-out: Anti-Cancer Activity IC50 (48 hr) MOLT-4
Experimental: as §1

Compound	IC50 [1]	IC50 [2]	Anti-Cancer Activity IC50 (48 hr) RS4; 11 [1]
Cc1ncsc1-c1ccc([C@H](C)NC(=O)[C@@H]2C[C@@H](O)CN2C(=O)[C@@H](NC(=O)CCCCCCC(=O)N2CCN(CC3(C)CCC(c4ccc(Cl)cc4)=C(CN4CCN(c5ccc(C(=O)NS(=O)(=O)c6ccc(N[C@H](CCN7CCOCC7)CSc7ccccc7)c([N+](=O)[O-])c6)cc5)CC4)C3)CC2)C(C)(C)C)cc1 (stereo partly drawn) [Compound 33, (2S,4R)-1-((2S)-2-(8-(4-((4′-chloro-4-methyl-6-((4-(4-(((4-(((R)-4-morpholino-1-(phenylthio)butan-2-yl)amino)-3-nitrophenyl)sulfonyl)carbamoyl)phenyl)piperazin-1-yl)methyl)-2,3,4,5-tetrahydro-[1,1′-biphenyl]-4-yl)methyl)piperazin-1-yl)-8-oxooctanamido)-3,3-dimethylbutanoyl)-4-hydroxy-N—((S)-1-(4-(4-methylthiazol-5-yl)phenyl)ethyl)pyrrolidine-2-carboxamide]	< 20 nM	20 to 100 nM	
Cc1ncsc1-c1ccc([C@H](C)NC(=O)[C@@H]2C[C@@H](O)CN2C(=O)[C@@H](NC(=O)CCCCCCC(=O)N2CCN(CC3(C)CCC(c4ccc(Cl)cc4)=C(CN4CCN(c5ccc(C(=O)NS(=O)(=O)c6ccc(N[C@H](CCN(C)C)CSc7ccccc7)c([N+](=O)[O-])c6)cc5)CC4)C3)CC2)C(C)(C)C)cc1 (stereo partly drawn) [Compound 34, (2S,4R)-1-((2S)-2-(8-(4-((4′-chloro-6-((4-(4-(((4-(((R)-4-(dimethylamino)-1-(phenylthio)butan-2-yl)amino)-3-nitrophenyl)sulfonyl)carbamoyl)phenyl)piperazin-1-yl)methyl)-4-methyl-2,3,4,5-tetrahydro-[1,1′-biphenyl]-4-yl)methyl)piperazin-1-yl)-8-oxooctanamido)-3,3-dimethylbutanoyl)-4-hydroxy-N—((S)-1-(4-(4-methylthiazol-5-yl)phenyl)ethyl)pyrrolidine-2-carboxamide]	< 20 nM	< 20 nM	
Cc1ncsc1-c1ccc([C@H](C)NC(=O)[C@@H]2C[C@@H](O)CN2C(=O)[C@@H](NC(=O)CCCCCCC(=O)N2CCN(CC3(C)CCC(c4ccc(Cl)cc4)=C(CN4CCN(c5ccc(C(=O)NS(=O)(=O)c6ccc(N[C@H](CCN(C)C7CC7)CSc7ccccc7)c([N+](=O)[O-])c6)cc5)CC4)C3)CC2)C(C)(C)C)cc1 (stereo partly drawn) [Compound 35, (2S,4R)-1-((2S)-2-(8-(4-((4′-chloro-6-((4-(4-(((4-(((R)-4-(cyclopropyl(methyl)amino)-1-(phenylthio)butan-2-yl)amino)-3-nitrophenyl)sulfonyl)carbamoyl)phenyl)piperazin-1-yl)methyl)-4-methyl-2,3,4,5-tetrahydro-[1,1′-biphenyl]-4-yl)methyl)piperazin-1-yl)-8-oxooctanamido)-3,3-dimethylbutanoyl)-4-hydroxy-N—((S)-1-(4-(4-methylthiazol-5-yl)phenyl)ethyl)pyrrolidine-2-carboxamide]		20 to 100 nM	+ ++
Cc1ncsc1-c1ccc([C@H](C)NC(=O)[C@@H]2C[C@@H](O)CN2C(=O)[C@@H](NC(=O)CCCCCCC(=O)N2CCN(CC3(C)CCC(c4ccc(Cl)cc4)=C(CN4CCN(c5ccc(C(=O)NS(=O)(=O)c6ccc(N[C@H](CCN(C)C7CCC7)CSc7ccccc7)c([N+](=O)[O-])c6)cc5)CC4)C3)CC2)C(C)(C)C)cc1 (stereo partly drawn) [Compound 36, (2S,4R)-1-((2S)-2-(8-(4-((4′-chloro-6-((4-(4-(((4-(((R)-4-(cyclobutyl(methyl)amino)-1-(phenylthio)butan-2-yl)amino)-3-nitrophenyl)sulfonyl)carbamoyl)phenyl)piperazin-1-yl)methyl)-4-methyl-2,3,4,5-tetrahydro-[1,1′-biphenyl]-4-yl)methyl)piperazin-1-yl)-8-oxooctanamido)-3,3-dimethylbutanoyl)-4-hydroxy-N—((S)-1-(4-(4-methylthiazol-5-yl)phenyl)ethyl)pyrrolidine-2-carboxamide]		20 to 100 nM	++ ++
